The values that follow are results of earlier work, collected in publication PMC8178945 (Computational and Structural Biotechnology Journal, 2021).

The structures appear in SMILES notation.

This series has as its target 3CL^Pro. The conditions noted are these: read-out: KD from isothermal titration calorimetry; previously obtained.

Consider `O=c1cc(-c2ccccc2)oc2cc(O)c(O)c(O)c12` [baicalein], for which the Kd was 4.03 µM.
